Data: US20100179130A1, “USE OF PIPERINE AND DERIVATIVES THEREOF FOR THE THERAPY OF NEUROLOGICAL CONDITIONS” (SYNGIS Bioscience GmbH & Co. KG, priority 2007, published 2010)

Tests used:
[1] = system: neural stem cells; test: In vitro differentiation assay on adult neural stem cells (beta-III-tubulin promoter firefly/Renilla dual luciferase reporter); assay type: cell-based, rat; settings: for fold induction at 1 µM: Rattus norvegicus, Neural stem cell, read-out: Stimulation factor for differentiation of neural stem cells; for fold induction at 1 µM / Stimulation factor for differentiation of neural stem cells: 1 μM final compound concentration, in comparison to sham treatment; for differentiation of neural stem cells to neurons, dose dependence: 0.2 μM up to 25, 50 or 100 μM, compared with sham and 1 μM retinoic acid
Excerpt: The neuroregenerative effect of the compounds according to the present invention can be assayed in vitro by measuring their stimulation of the differentiation of neural stem cells. Therefore, adult neural stem cells have to be isolated and subsequently cultivated in a suitable culture medium. After several passages in vitro the stem cells have to be co-transfected with a DNA construct coding for two discriminable reporter proteins one of them under the control of a constitutive promoter and the other under the control of a beta-III-tubulin promoter. The beta-III-tubulin promoter is induced during the process of neural stem cell differentiation; therefore the reporter protein under the control of this promoter serves as a marker for the stem cell differentiation in such an in vitro dual reporter assay (Schneider et al., J Clin Investigation 2005; 115:2083-2098). The person skilled in the art knows several suitable constitutive promoters such as the SV40-promoter, the TK-promoter, or the CMV-promoter. As discriminable reporter proteins for such a dual reporter assay one can use discriminable luciferases such as firefly luciferase and Renilla luciferase. The transfected cells have to be incubated with the test compound and with a positive and negative controls for normalization and background correction. As a positive control compound one can use retinoic acid (Guan et al., Cell Tissue Res. 2001; 305:171-176; Jacobs et al., Proc. Natl. Acad. Sci. USA 2006; 103:3902-3907), a suitable negative control is the sham treatment of the cells. The neroregenerative activity of the test compound is determined as the ratio of the signal of the beta-III-tubulin promoter controlled reporter versus the signal of the constitutively expressed reporter and is expressed as fold from the control. This assay is suitable to assess the neuroregenerative activity of piperine and derivatives thereof, but also can be used to screen for other potential neuroregenerative compounds. Preferably, such a screening can be used to test compounds which are already known to be suitable as a medicament in terms of its toxicology, bioavailability, solubility, stability etc.
Neural stem cells were isolated from the subventricular zone of 4 week-old male Wistar rats as described (Maurer et al, Proteome Sci. 2003; 1:4). Cells were cultivated in Neurobasal medium (Invitrogen) supplemented with B27 (Invitrogen), 2 mM L-glutamine, 100 units/ml penicillin, 100 units/ml streptomycin, 20 ng/ml […] (EGF), 20 ng/ml fibroblast growth factor-2 (FGF-2), and 2 μg/ml heparin. Once a week the neural stem cells were passaged and experiments were performed after 4 weeks in vitro. For DNA transfection, the cells were dissociated and plated on poly-L-ornithin/laminin-coated 96-well plates at a density of 50.000 cells/well. Cotransfection with the pGL3-p-βIII-tubulin vector (100 ng/well) and the pRL SV40 vector (100 ng/well) was carried out according to the FuGene6 Transfection protocol (Roche). The pRL SV40 vector (Promega) served as an internal control vector.
To amplify the class III β-tubulin gene promoter (fragment −450-+54), rat genomic DNA was used as a template for PCR (Dennis et al., Gene 2002; 294:269-277). The amplified fragment was inserted into the Mlu I/Xho I site of the pGL3-Basic firefly luciferase reporter vector (Promega) to generate the pGL3-p-βIII-tubulin experimental vector.
After overnight incubation, the plate was decanted and given in 8-fold replicates fresh medium containing piperine (Sigma) or vehicle. As a positive control for in vitro differentiation, stem cells were treated by adding 1 μM retinoic acid (Sigma) to the medium missing the mitogens.
After 48 hrs, the cells were harvested to prepare the cellular extracts for luciferase assay following the directions of the manufacturer (Promega). […]

[2] = system: SH-SY5Y neuronal cells; test: In vitro anti-apoptosis assay, staurosporine induced apoptosis, Caspase-Glo 3/7; assay type: cell-based, human; settings: for degree of apoptosis relative to the staurosporine control: compound 1 μM in the presence of staurosporine 0.1 μM
[3] = system: motoneural cell line NSC-34; test: Anti-apoptosis assay on motoneural cell line, staurosporine induced apoptosis, Caspase-Glo 3/7; assay type: cell-based; settings: for degree of apoptosis relative to the staurosporine control: compound 1 μM in the presence of staurosporine 0.1 μM
Experimental: Instead of the SH-SY5Y cells used in Example 3 and 4, this analysis was performed with motoneural cell line NSC-34. […] Incubation with staurosporine (SP; 0.1 μM) alone served as positive control and incubation with vehicle served as negative control. The degree of apoptosis relative to the staurosporine control is shown in FIG. 4 (vehicle (sham): 6%; staurosporine (SP): 100%; piperine plus staurosporine: 70%; derivative B plus staurosporine: 55%; derivative E plus staurosporine: 75%; derivative G plus staurosporine: 76%; derivative K plus staurosporine: 83%; derivative S plus staurosporine: 77%; derivative U plus staurosporine: 71%).

[4] = system: SH-SY5Y neuronal cells; test: In vitro viability assay, cells stably transfected with constitutive Renilla luciferase; settings: 1 μM, 5 h
Excerpt: The viability assay allows for further assessment of test compounds regarding their effect on cells such as neurons. […] Subsequently, the signal generated by the reporter construct serves as a readout for the viability of the cells in the presence of the test compound. The assay enables the evaluation of potential neurotoxic effects of the test compound itself.
The effect of a compound on the viability of neuronal cells can be assayed in vitro by measuring the survival of neuronal cells transfected with a reporter construct under a constitutive promoter. SH-SY5Y neuronal cells stably transfected with a Renilla luciferase construct under the SV40 promoter were seeded in 96-well plates at a density of 2.5×10^4 cells per well. Following overnight incubation the cells were stimulated with medium containing piperine or vehicle. Staurosporine (0.1 μM) served as positive control. The Renilla luciferase activity was measured 5 h later using a luminometer (Berthold Technologies, Mithras LB 940). Piperine was tested in a range from 0.1 nM to 100 μM final concentration.

CCCOc1ccc(C=CC(=O)N2CCCCCC2)cc1 [1-[3-(4-propoxyphenyl)acryloyl]azepane]
fold induction at 1 µM [1]: 2.3

O=C(/C=C/c1ccc2c(c1)OCO2)N1CCCC1 [1-(3-trans-benzo-1,3-dioxol-5-ylacryloyl)pyrrolidine]
degree of apoptosis relative to the staurosporine control ([2]; SH-SY5Y): 72%
differentiation of neural stem cells to neurons, dose dependence [1]: significantly stimulates
fold induction at 1 µM [1]: 1.3

O=C(/C=C/c1ccc(Cl)cc1)N1CCCCC1 [(2E)-3-(4-chlorophenyl)-1-piperidylprop-2-en-1-one]
degree of apoptosis relative to the staurosporine control ([2]; SH-SY5Y): 60%
degree of apoptosis relative to the staurosporine control [3]: 71%
viability of neuronal cells [4]: did not show reduced viability
differentiation of neural stem cells to neurons, dose dependence [1]: significantly stimulates
Stimulation factor for differentiation of neural stem cells [1]: 4.4 x-fold

COc1cc(CNC(=O)CCCC/C=C/C(C)C)ccc1O [capsaicin, reference compound]
anti-apoptotic effect compared to piperine (10 μM) ([2]; capsaicin 10 μM with staurosporine 0.1 μM): only a marginal anti-apoptotic effect
stimulating effect on the differentiation of neural stem cells ([1]; 0.1 nM to 100 μM final concentration): no stimulating effect

CCOc1ccc(C=CC(=O)NC2CCCCC2)cc1 [N-cyclohexyl-3-(4-ethoxyphenyl)acrylamide]
fold induction at 1 µM [1]: 1.7

CCOc1ccc(C=CC(=O)NC2CCCO2)cc1 (stereo not shown) [3-(4-ethoxyphenyl)-N-(tetrahydro-2-furanyl)acrylamide]
fold induction at 1 µM [1]: 1.5

CCCOc1ccc(C=CC(=O)NC2CCCC2)cc1 [N-cyclopentyl-3-(4-propoxyphenyl)acrylamide]
differentiation of neural stem cells to neurons, dose dependence [1]: significantly stimulates
fold induction at 1 µM [1]: 1.6

O=C(C=Cc1ccc2c(c1)OCCCO2)N1CCCCCC1 [1-Azepan-1-yl-3-(3,4-dihydro-2H-benzo[b][1,4]dioxepin-7-yl)-propenone]
degree of apoptosis relative to the staurosporine control ([2]; SH-SY5Y): 83%
degree of apoptosis relative to the staurosporine control [3]: 83%
viability of neuronal cells [4]: did not show reduced viability
differentiation of neural stem cells to neurons, dose dependence [1]: significantly stimulates
Stimulation factor for differentiation of neural stem cells [1]: 6.1 x-fold

CCCOc1ccc(C=CC(=O)N2CCCCC2)cc1 [1-[3-(4-propoxyphenyl)acryloyl]piperidine]
degree of apoptosis relative to the staurosporine control ([2]; SH-SY5Y): 81%
degree of apoptosis relative to the staurosporine control [3]: 77%
differentiation of neural stem cells to neurons, dose dependence [1]: significantly stimulates
fold induction at 1 µM [1]: 4

COc1cccc(NC(=O)/C=C/c2ccc(Cl)cc2)c1 [SB366791, reference compound]
inhibition of the neuroprotective effect of piperine ([2]; SB366791 10 nM to 100 nM with piperine 10 μM and staurosporine 0.1 μM): did not result in any inhibition
inhibition of the neuroregenerative effect of piperine ([1]; SB366791 10 μM co-incubated with 10 μM piperine): did not result in any inhibition

O=C(C=Cc1ccc2c(c1)OCO2)NC1CCCCCCC1 [3-(1,3-benzodioxol-5-yl)-N-cyclooctylacrylamide]
degree of apoptosis relative to the staurosporine control ([2]; SH-SY5Y): 77%
degree of apoptosis relative to the staurosporine control [3]: 75%
differentiation of neural stem cells to neurons, dose dependence [1]: significantly stimulates
fold induction at 1 µM [1]: 5

NC1(C(=O)/C=C/c2ccc3c(c2)OCO3)CCCC1 [1-(3-trans-benzo-1,3-dioxol-5-ylacryloyl)cyclopentylamine]
degree of apoptosis relative to the staurosporine control ([2]; SH-SY5Y): 77%
differentiation of neural stem cells to neurons, dose dependence [1]: significantly stimulates
fold induction at 1 µM [1]: 1.4

COc1ccc(C=CC(=O)NC2CCCCCCC2)cc1 [N-cyclooctyl-3-(4-methoxyphenyl)acrylamide]
differentiation of neural stem cells to neurons, dose dependence [1]: significantly stimulates
fold induction at 1 µM [1]: 1.9

CC1CCN(C(=O)C=Cc2ccc3c(c2)OCO3)CC1 [1-[3-(1,3-benzodioxol-5-yl)acryloyl]-4-methylpiperidine]
differentiation of neural stem cells to neurons, dose dependence [1]: significantly stimulates
fold induction at 1 µM [1]: 1.9

O=C(C=Cc1ccc2c(c1)OCO2)NC1CC2CCC1C2 (stereo not shown) [3-(1,3-benzodioxol-5-yl)-N-bicyclo[2.2.1]hept-2-ylacrylamide]
fold induction at 1 µM [1]: 1.7

CN[C@@H]1C[C@H]2O[C@@](C)([C@@H]1OC)n1c3ccccc3c3c4c(c5c6ccccc6n2c5c31)C(=O)NC4 [staurosporine, reference compound]
degree of apoptosis relative to the staurosporine control (staurosporine alone) ([2]; staurosporine 0.1 μM alone, positive control, SH-SY5Y): 100%
degree of apoptosis relative to the staurosporine control (staurosporine alone) ([3]; staurosporine 0.1 μM alone, positive control): 100%

3-(Chloro-3,4-dihydro-2H-benzo[b][1,4]dioxepin-7-yl)N-cyclohexyl-acrylamide
Stimulation factor for differentiation of neural stem cells [1]: 1.7 x-fold

O=C(C=Cc1cc(Cl)c2c(c1)OCCO2)N1CCCCCC1 [1-Azepan-1-yl-3-(8-chloro-2,3-dihydro-benzol[1,4]dioxin-6-yl)-propenone]
Stimulation factor for differentiation of neural stem cells [1]: 1.8 x-fold

NC1(C(=O)/C=C/c2ccc3c(c2)OCO3)CCCCCC1 [1-(3-trans-benzo-1,3-dioxol-5-ylacryloyl)cycloheptylamine]
degree of apoptosis relative to the staurosporine control ([2]; SH-SY5Y): 49%
degree of apoptosis relative to the staurosporine control [3]: 55%
differentiation of neural stem cells to neurons, dose dependence [1]: significantly stimulates
fold induction at 1 µM [1]: 4

O=C(C=Cc1ccc2c(c1)OCO2)NCC1CCCO1 (stereo not shown) [3-(1,3-benzodioxol-5-yl)-N-(tetrahydro-2-furanylmethyl)acrylamide]
fold induction at 1 µM [1]: 1.5

O=C(C=Cc1cc(Cl)c2c(c1)OCCCO2)N1CCCCCC1 [1-Azepan-1-yl-3-(9-chloro-3,4-dihydro-2H-benzo[b][1,4]dioxepin-7-yl)-propenone]
Stimulation factor for differentiation of neural stem cells [1]: 2.2 x-fold

O=C(C=Cc1ccc2c(c1)OCO2)NC1=NCCS1 [3-Benzol[1,3]dioxol-5-yl-N-(4,5-dihydro-thiazol-2-yl)-acrylamide]
degree of apoptosis relative to the staurosporine control ([2]; SH-SY5Y): 79%
degree of apoptosis relative to the staurosporine control [3]: 76%
viability of neuronal cells [4]: did not show reduced viability
differentiation of neural stem cells to neurons, dose dependence [1]: significantly stimulates
Stimulation factor for differentiation of neural stem cells [1]: 4.6 x-fold

CCCOc1ccc(C=CC(=O)NC2CCCCCC2)cc1 [N-cycloheptyl-3-(4-propoxyphenyl)acrylamide]
differentiation of neural stem cells to neurons, dose dependence [1]: significantly stimulates
fold induction at 1 µM [1]: 1.7
